Experimental findings from paper PMC6774960, “Design, synthesis and biological evaluation of a series of new resveratrol analogues as potential anti-cancer agents” (Royal Society Open Science, 2019) are described below.

For data set [1], the system named is HepG2 cells. Put plainly: MTT anti-proliferation assay, HepG2. It counts as cell-based, human. The following applies: average of three determinations. As for the experimental part: The 22 synthesized resveratrol compounds were evaluated for anti-proliferative activities against three human cancer cell lines, including HepG2, A549 and HeLa cells, using 3-[4,5-dimethylthiazol-2-yl]-2,5 diphenyl tetrazolium bromide (MTT) assays. Paclitaxel, a well-known tubulin inhibitor, was used as a positive control. […] Therefore, the inhibitory activity of the compounds depended not only on the 2-position substitution of acrylic acid, but also on the 3-position substitution of acrylic acid.
(§1) The anti-proliferative and cytotoxicity activity was determined using MTT assay. Human cervical carcinoma HeLa cells, human hepatocellular carcinoma HepG2 cells, human lung carcinoma A549 cells were representative in the anti-proliferation assay, which were obtained from the Shanghai Institute of Cell Biology (Shanghai, China). Normal African green monkey kidney Vero cells were a gift from Dr Xiumiao He at Guangxi University for Nationalities. Normal human hepatocytes LO2 cells were a gift from Dr Xing Lin at Guangxi Medical University. The HepG2, Hela, LO2 and Vero cells were cultured in Dulbecco's modified Eagle's medium (DMEM, Gibco) and the A549 cells were cultured in RPMI1640 (Gibco), both media were supplemented with 10% fetal calf serum and antibiotics (100 IU ml^−1 penicillin, 100 IU ml^−1 streptomycin; Amresco).
(§2) Cells were seeded in 96-well microtiter plates at a density of 1 × 10^4 cells well^−1 and incubated with different concentrations of compound (6.25, 12.50, 25.00, 50.00 to 100.00 µM), cisplatin and paclitaxel in RPMI-1640 or DMEM at 37°C with 5% CO2. After 24 h, cell morphology was observed using a light microscope, and then 20 µl of MTT solution (5 mg ml^−1) was added to the well and incubated for 4 h, then cell survival was determined by measuring the optical density (OD) absorbance at a wavelength of 570 nm using an ELISA microplate reader. The inhibition rate (IR) following each compound treatment was determined by the following equation: IR (%) = (1 − ODexp/ODcon) × 100%, where ODexp and ODcon are the OD of the treated and untreated cells, respectively. Cisplatin and paclitaxel were used as positive control drugs.
On the technique in general: Tetrazolium dyes change colour on reduction, which living cells bring about.

In data set [2] the test system is HepG2 cells. Put plainly: Apoptosis analysis, Annexin V-FITC/PI flow cytometry. It counts as cell-based, human. The following applies: 24 h. How it is done: To investigate the effect of compound r on the apoptosis of HepG2 cells, cells were treated with different concentrations of compound r (0, 5, 15 and 45 µM) for 24 h and apoptosis was detected by flow cytometry analysis.
Figure 4. Effect of compound r on the apoptosis in HepG2 cells. Analysis of compound r induced apoptosis in HepG2 cells. The HepG2 cells were treated with 0, 5, 15 or 45 µM by flow cytometry. Cells were stained using propidium iodide (IP) and fluorescein isothiocyanate (FITC). The data manifested the percentage of early apoptotic cells (lower right) or late apoptosis and cell death (upper right) in each quadrant. TEXT PRINTED IN THE PICTURE: control: 7.22% (20 μM); 51.10% (20 μM); 18.67% (20 μM); 23.01% (20 μM) | compound r: 10.95% (low (5 μM)); 22.17% (low (5 μM)); 45.61% (low (5 μM)); 21.27% (low (5 μM)); 10.26% (middle (15 μM)); 18.51% (middle (15 μM)); 33.78% (middle (15 μM)); 37.45% (middle (15 μM)); 7.78% (high (45 μM)); 32.94% (high (45 μM)); 28.71% (high (45 μM)); 30.57% (high (45 μM)) DOUBTS OF THE COPYIST ABOUT THIS PICTURE: The quadrant percentages have no printed measure. For each plot they are listed in the order upper left, upper right, lower left, lower right (axes PI vs annexin V FITC). / The blank (0 μM) plot prints 0.00%, 0.01%, 99.91% (faint, partly hidden by dots, uncertain) and 0.08%. It is left out because no substance is present. / control (20 μM): 18.67% and 23.01% are partly overlaid by dots, so the digits are not fully certain. / compound r, low (5 μM): 21.27% is partly overlaid by dots; the first digit could be 2 or 3. 45.61% is in small print. / compound r, middle (15 μM): 33.78% and 37.45% are in small print, so 3/8 are not fully certain. / compound r, high (45 μM): 30.57% is partly overlaid by dots, and 28.71% is in small print. / The label 'compound r' is printed only on the axis of the bar chart. The scatter plots themselves are labelled only low, middle and high.
HepG2 cells seeded in 6-well plates were treated with compound r (0, 5, 15, 45 µM) or cisplatin (20 µM) for 24 h. […] The stained cells were detected via a flow cytometer.
On the technique in general: Flow cytometry measures light scatter and fluorescence of single cells or particles in a stream.

The next data set concerns HeLa cells. Put plainly: MTT anti-proliferation assay, HeLa. In kind it is cell-based, human. The settings on record: 24 h, average of three determinations. How it is done: The 22 synthesized resveratrol compounds were evaluated for anti-proliferative activities against three human cancer cell lines, including HepG2, A549 and HeLa cells, using 3-[4,5-dimethylthiazol-2-yl]-2,5 diphenyl tetrazolium bromide (MTT) assays. Paclitaxel, a well-known tubulin inhibitor, was used as a positive control.
as §1
After 24 h, cell morphology was observed using a light microscope, and then 20 µl of MTT solution (5 mg ml^−1) was added to the well and incubated for 4 h, then cell survival was determined by measuring the optical density (OD) absorbance at a wavelength of 570 nm using an ELISA microplate reader. […] Cisplatin and paclitaxel were used as positive control drugs.

The nature of data set [3]: MTT cytotoxicity test, Vero. It counts as cell-based, African green monkey. The following applies: African green monkey, Vero cells (normal African green monkey kidney), average of three determinations. As for the experimental part:
Vero cells are non-tumorigenic cell lines and are important raw materials as the research and production of biological products. Vero cells show low tumorigenicity and had been approved for use in the production of human virus vaccines. Thus, Vero cells were chosen as a control for cytotoxicity. All compounds were evaluated for their cell toxicity against Vero and normal human hepatocytes cells line (LO2) using MTT assays.
as §1, §2

As usually defined, the IC50 is the point on the concentration scale where inhibition reaches its midpoint. Broadly, the CC50 is the concentration at which the toxic effect on the cells reaches its halfway point. As for `COc1ccc(C(=Cc2cc(C(F)(F)F)ccc2Cl)C(=O)O)cc1` [compound r, 3-(2-chloro-5-(trifluoromethyl)phenyl)-2-(4-methoxyphenyl) acrylic acid], the IC50 with HepG2 cells [1] (24 h) amounted to 7 ± 1 µM; in the data set with HepG2 cells [1] (Homo sapiens, HepG2, 24 h) it was 7.49 µM; in the data set on HeLa cells it was 4.8 ± 0.8 µM; in the data set on HeLa cells (Homo sapiens, HeLa), 4.79 µM. Further, the apoptotic cell population in the data set on HepG2 cells [2] (HepG2, 5 µM) was determined as 43.44%; in the data set with HepG2 cells [2] (HepG2, 15 µM), 55.96%; in the data set with HepG2 cells [2] (HepG2, 45 µM), 63.51%. Further, in data set [3], the CC50 at 24 h was determined as 84 ± 3 µM.
